Laboratory results as given in PMC11475408, “All‐Inorganic Polyoxometalates Act as Superchaotropic Membrane Carriers” (Advanced Materials (Deerfield Beach, Fla.), 2023).

How the values were obtained:
[1] = Membrane disruption of liposomes by POM alone (CF fluorescence, DLS); format: biochemical
Procedure: It should be noted that the addition of POMs alone (without cargo) retained the stability of the liposomes in the studied concentration range (up to 100 µM), that is, neither an increase in CF fluorescence nor changes in size distribution as obtained by dynamic light scattering experiments (DLS, see Figure S4, Supporting Information) were observed, which would have signaled membrane rupture. These negative controls allowed us to proceed to the carrier experiments, with added cargo.
DLS experiments of the vesicles were carried out on a Malvern Instruments DTS Nano 2000 Zeta‐Sizer. A POM concentration of 100 µM was chosen as default, since this is the highest concentration at which membrane transport was evaluated. The cargo concentration was set to be same as in the transport experiments, namely 10 µM for heptaarginine, 1 µM for protamine, and 0.1 µM for polyarginine. Note that the POMs themselves, with a size of ≈1 nm, fall below the detection limit (>10 nm) of the DLS instrument.
Figure S3. Transport activity, Y, for polyarginine (0.1 µM) in EYPC[…]CF liposomes as a function of the concentration of the different evaluated POMs. Solid lines correspond to the resulting fit with the Hill equation. Blue squares are data obtained at neutral pH, and red stars data obtained at acidic pH.
Table S4. Membrane transport parametersa) of active POMs at neutralb) and acidicc) pH.
HeptaArgd) Protaminee) PolyArgf) carrier pH Hydrolysis/Stability
Ymax [%]g) EC50h) [µM] E i) Ymax [%] EC50 [µM] E Ymax [%] EC50 [µM] E […]
Figure S5. Transport kinetics (left pannels), dose response curves (middle pannels) for cargo transport, and size distribution (by DLS, right pannels) for [PW12]3‒ (top) and [SiW12]4‒ (bottom), measured with EYPC[…]CF liposomes at pH 7.4, but preserving the POM solution at pH 1.2 before addition. As shown in panel a, the addition of [PW12]3‒ alone gave a fluorescence increase, pointing to membrane disruption, which was confirmed by DLS (panel c). […]

[2] = ref [11]; cited from earlier work
From the text: Table 1 Stability of POMs in acidic and neutral pH and membrane transport parameters of different cargo molecules at pH 7.4 | column: Hydrolysis/stability / pH 5.5 ^e); Hydrolysis/stability / pH 7.5 ^f)

CHO‐K1 cells = assay: FITC-Arg8 uptake in live cells, confocal imaging; format: cell-based, Chinese hamster; details: carrier 5 µM, 5 min, then FITC-Arg8 5 µM, 30 min, 37 °C, four biological replicates
Procedure: CHO‐K1 cells were plated into µ‐Slide 8‐well plates (ibidi) at a density of ≈1 × 10^5 cells per well (per 1 mL) and incubated for 24 h in Ham's F‐12 medium containing 10% v/v fetal bovine serum and 1.0% penicillin streptomycin at 37 °C in a 5% CO2 atmosphere. The cells were washed twice with Hank's buffer, incubated for 5 min at 37 °C in Ham's F‐12 medium without phenol red with carrier (5 µM), and subsequently in Ham's F‐12 medium without phenol red with 5 µM FITC‐Arg8 for 30 min at 37 °C. Cells in the absence of carrier were used as control. The cells were washed twice with Hank's buffer containing 100 µg mL^−1 heparin and then washed twice with Ham's F‐12 medium without phenol red. The nuclear staining was performed by incubating the cells with 10 µg mL^−1 Hoechst 33 342 (bis‐benzimide H33342 trihydrochloride) for 10 min at 37 °C. Cells were directly imaged as stated above.

## Na3[α‐P^VW^VI 12O40]·nH2O [[PW12]^3‒]
[1]; POM alone added to liposomes, POM solution kept at pH 1.2, CF fluorescence
  Membrane disruption with POM solution kept at pH 1.2: strong interaction and membrane disruption
[1]; higher than 100 µM POM, 10 mM Tris, 107 mM NaCl, pH 7.4
  Vesicle lysis at higher concentrations: led to vesicle lysis
[2]
  Hydrolysis/stability pH 7.5: to [P^VW^VI 9O34]^9‒ ^j)
CHO‐K1 cells
  FITC-Arg8 uptake promoted by carrier: some apparent cellular uptake, but the cell morphology was highly compromised
CHO‐K1 cells; listed as [PW12]3‒
  FITC-Arg8 uptake promoted by carrier: highly compromised
